Assay results as given in publication PMC3479139, “Diverse Small Molecule Inhibitors of Human Apurinic/Apyrimidinic Endonuclease APE1 Identified from a Screen of a Large Public Collection” (PLoS ONE, 2012).

Assays:
[1] = molecular target: T1, APE1 (Homo sapiens, UniProt P27695); assay: Fluorogenic kinetic qHTS APE1 incision assay (primary screen and retest of cherrypicked samples); format: biochemical;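 further: purified APE1 cleaving a fluorophore/dark-quencher labelled 17-mer duplex DNA bearing a tetrahydrofuran AP site, fluorescence rise followed kinetically over the first 2 min, inhibition normalized to controls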
T1 construct: made in house

[2] = molecular target: T1, APE1; assay: Gel-based radiotracer (32P) APE1 incision assay; format: biochemical; set-up: concentration or dose not given beside the values; conditions: percent incision shown; entries 1-112;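 further: APE1 incision reactions ran 5 min at 37 °C, with cleaved product and intact substrate resolved electrophoretically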
[3] = molecular target: T1, APE1; assay: Fluorescence polarization (FP) displacement assay of APE1 binding to AP-DNA probe; conditions: read-out: FP IC50;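 further: TAMRA 5′-labeled duplex DNA with THF abasic site (5 nM) and APE1 (20 nM), Mg2+-free buffer, 15 min at room temperature, inhibition seen as lowered polarization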
[4] = molecular target: double-stranded 17-mer DNA fragment; assay: ThO (Thiazole Orange) DNA displacement assay; format: binding; conditions: for IC50: read-out: ThO-DNA binding IC50;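 on all read-outs here: miniaturized displacement of the intercalating dye from unlabeled duplex DNA, used to flag nonspecific DNA binders, chiefly intercalators, groove binders may be missed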
[5] = molecular target: T2, E. coli Endo IV (Escherichia coli, UniProt P0A6C1); assay: E. coli Endo IV profiling counterscreen; format: biochemical; conditions: read-out: EndoIV IC50;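 further: selectivity counterscreen of candidate APE1 inhibitors against the bacterial endonuclease Endo IV, run in the same assay format as the primary APE1 high-throughput screen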
T2 construct: made in house
Description: In order to screen out nonselective compounds, such as non-specific DNA binders and inhibitors of related enzymes, we used a miniaturized ThO DNA displacement assay and a counterscreen against the bacterial endonuclease E. coli Endo IV, respectively, following the previously published protocols [21].
To probe the selectivity of the candidate APE1 inhibitors, we tested them against E. coli EndoIV [36], employing the same assay as used in the HTS.

[6] = initial quantitative high-throughput screen, read-out: APE1 qHTS IC50
[7] = retest of cherrypicked sample, read-out: APE1 Retest IC50

T1 sequence (P27695 whole entry): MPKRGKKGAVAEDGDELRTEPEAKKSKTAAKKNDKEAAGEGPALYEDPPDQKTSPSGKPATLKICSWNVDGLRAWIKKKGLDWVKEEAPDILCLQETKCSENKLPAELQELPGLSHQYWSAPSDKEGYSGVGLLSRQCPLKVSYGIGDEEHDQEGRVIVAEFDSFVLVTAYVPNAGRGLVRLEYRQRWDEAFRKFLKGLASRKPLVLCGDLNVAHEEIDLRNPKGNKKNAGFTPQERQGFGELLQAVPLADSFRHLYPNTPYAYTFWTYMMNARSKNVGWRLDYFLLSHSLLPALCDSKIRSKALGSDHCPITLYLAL

Structure (SMILES) | IC50 [1, 6] | IC50 [1, 7] | Radiotracer Assay (%Activity) [2] | IC50 [3] | IC50 [4] | IC50 [5] | ThO assay signal behaviour (autofluorescence interference) [4]
O=C(OCC1O[C@@H](OC(=O)c2cc(O)c(O)c(O)c2)[C@@H](OC(=O)c2cc(O)c(O)c(O)c2)[C@@H](OC(=O)c2cc(O)c(O)c(O)c2)[C@@H]1OC(=O)c1cc(O)c(O)c(O)c1)c1cc(O)c(O)c(O)c1 (stereo partly drawn) [MLS000574902] | 0.01 µM | 0.006 µM | 8% | > 57 µM | 4 µM | > 57 µM | 
NC(=O)Cn1c(=O)n(Cc2ccco2)c(=O)c2c3c(sc21)CCCCC3 [MLS000559128] | 31.6 µM | 10 µM | 21% | 7.1 µM | > 57 µM | > 57 µM | 
Cn1cnnc1SCC(=O)Nc1nc(-c2ccccc2)cs1 [MLS000711532] | 28.2 µM | 10 µM | 32% | > 57 µM | > 57 µM | > 57 µM | 
O=C(CSc1nc(-c2ccc(F)cc2)nc2c1Cc1ccccc1O2)Nc1ccc(C(=O)O)cc1 [MLS000673045] | 12.6 µM | 4.5 µM | 36% | > 57 µM | 3.2 µM | 14.1 µM | 
COc1cc(N(C)C)cc(CN(C)CCc2ccc([N+](=O)[O-])cc2)c1O [NCGC00165741] | 3.2 µM | 0.3 µM | 10.6% | > 57 µM | > 57 µM | > 57 µM | 
CCOC(=O)c1cc(-c2ccc(N3CCOCC3)cc2)nn1-c1ccccc1C(=O)O [MLS000759946] | 2.5 µM | 14.1 µM | 27% | 15.8 µM | > 57 µM | > 57 µM | 
CCOC(=O)C1CCN(/C=C2/C(=O)NC(=O)N(Cc3ccco3)C2=O)CC1 [MLS000113273] | 14.1 µM | 3.2 µM | 3% | > 57 µM | > 57 µM | > 57 µM | 
O=C(NC1CC1)c1cc(-c2ccco2)nc2ccccc12 [MLS001005620] | 11.2 µM | 4.4 µM | 17% | > 57 µM | > 57 µM | > 57 µM | 
O=C(O)C[C@@H]1C(=O)O[C@@H]2C(COC(=O)c3cc(O)c(O)c(O)c3)O[C@@H](OC(=O)c3cc(O)c(O)c(O)c3)[C@@H](OC(=O)c3cc(O)c(O)c4c3[C@H]1[C@H](O)C(=O)O4)[C@H]2OC(=O)c1cc(O)c(O)c(O)c1 (stereo partly drawn) [MLS000697665] | 0.01 µM | 0.01 µM | 29% | 14.1 µM | 0.4 µM | > 57 µM | 
O=C(CCCN1C(=O)/C(=C/c2ccco2)SC1=S)Nc1ccccc1C(=O)O [MLS000778775] | 19.9 µM | 12.6 µM | 3% | 5 µM | > 57 µM | > 57 µM | 
O=C(O)c1ccc(-n2cccc2/C=C2/NC(=O)N(c3ccccc3)C2=O)cc1 [MLS000778414] | 2.5 µM | 4 µM | 37% | 12.6 µM | > 57 µM | > 57 µM | 
Cc1cc(/C=C2\C(=O)NC(=O)N(Cc3ccco3)C2=O)c(C)n1-c1ccc(C(=O)O)cc1 [MLS000807042] | 1.1 µM | 14.1 µM | 33% | > 57 µM | > 57 µM | > 57 µM | 
COc1ccc(C(CC(=O)N2CCCCC2)c2c(OC)cc(OC)c3c(-c4ccccc4)cc(=O)oc23)cc1 (stereo not drawn) [MLS000879461] | 25.1 µM | 7.9 µM | 24% | 14.1 µM | > 57 µM | > 57 µM | 
O=C(O)c1ccc(-n2cccc2/C=C2/NC(=O)N(c3cccc(Cl)c3)C2=O)cc1 [MLS000621695] | 2.8 µM | 1.6 µM | 6% | 11.2 µM | 15.8 µM | > 57 µM | 
O=C(CCc1n[nH]c(=O)[nH]c1=O)N/N=C/c1ccco1 [MLS000685551] | 19.9 µM | 12.6 µM | 33% | > 57 µM | > 57 µM | > 57 µM | 
O=c1ccc2[n+]([O-])c3ccc([O-])cc3oc-2c1.[Na+] [MLS000778776] | 25.1 µM | 12.4 µM | 5% | 0.02 µM | > 57 µM | 4.5 µM | 
Oc1cc(O)c2c(c1)OC(c1ccc(O)c(O)c1)C(O)C2 (stereo not drawn) [NCGC00095270] | 3.2 µM | 2.8 µM | 35.9% | > 57 µM | > 57 µM | > 57 µM | 
COc1cc(/C=N/Nc2ccc(C(=O)O)cc2)ccc1O [MLS000685676] | 14.1 µM | 14.1 µM | 50% | > 57 µM | > 57 µM | > 57 µM | 

Structure (SMILES) | IC50 [1, 6] | IC50 [1, 7] | Radiotracer Assay (%Activity) [2] | IC50 [3] | IC50 [4] | IC50 [5] | ThO assay signal behaviour (autofluorescence interference) [4]
CC(=O)[C@]1(O)Cc2c(O)c3c(c(O)c2[C@@H](O[C@H]2C[C@H](N)[C@H](O)[C@H](C)O2)C1)C(=O)c1ccccc1C3=O [NCGC00093976] | 19.9 µM | 14.1 µM | 4.6% | 3.2 µM |  | 25.1 µM | strong dose-dependent fluorescence signal increase
CCN(CC)C(=O)CC(c1cc(OC)c(OC)c(OC)c1)c1c(OC)cc(OC)c2c(-c3ccccc3)cc(=O)oc12 (stereo not drawn) [MLS000879482] | 22.4 µM | 5 µM | 37% | 12.6 µM | > 57 µM | > 57 µM | 
O=C(c1cc(C(=O)c2ccco2)cc(C(=O)c2ccco2)c1)c1ccco1 [MLS000699310] | 31.6 µM | 5 µM | 6% | > 57 µM | > 57 µM | > 57 µM | 
Cc1ccc(S(=O)(=O)Nc2csc(C)c2C(=O)O)cc1 [MLS000850015] | 11.2 µM | 15.8 µM | 49% | > 57 µM | > 57 µM | > 57 µM | 
O=C1CC(=O)N(Cc2ccco2)C(=O)N1 [MLS000062734] | 10 µM | 5.6 µM | 14% | > 57 µM | > 57 µM | > 57 µM | 
CC(C)C(C(=O)O)N1C(=O)/C(=C/C=C/c2ccco2)SC1=S (stereo not drawn) [MLS000551672] | 1.6 µM | 2.5 µM | 19% | 11.2 µM | > 57 µM | > 57 µM | 
O=C1NN(c2ccccc2)C(=O)/C1=C/c1ccc(-c2ccc(Cl)c(C(=O)O)c2)o1 [MLS000682903] | 12.6 µM | 15.6 µM | 37% | 15.8 µM | > 57 µM | > 57 µM | 
CCCSC1=N/C(=C\C=C\c2ccco2)C(=O)S1 [MLS000114057] | 4 µM | 17.8 µM | 40% | > 57 µM | > 57 µM | > 57 µM | 
CC1(CC(=O)N/N=C/c2cc([N+](=O)[O-])c(O)cc2O)OCCO1 [MLS000548032] | 14.1 µM | 12.6 µM | 13% | > 57 µM | > 57 µM | > 57 µM | 
N#Cc1ccccc1CN1C(=O)S/C(=C/c2cccn2-c2cccc(C(=O)O)c2)C1=O [MLS000539676] | 19.9 µM | 14.1 µM | 25% | > 57 µM | > 57 µM | > 57 µM | 
Cc1ccc(NC(=O)CN2C(=O)N/C(=C\c3cccn3-c3cccc(C(=O)O)c3)C2=O)cc1 [MLS000686355] | 3.5 µM | 1.4 µM | 15% | 14.1 µM | > 57 µM | > 57 µM | 
Cc1cc(/C=C2\C(=O)NC(=O)N(Cc3ccccc3Cl)C2=O)c(C)n1-c1ccc(C(=O)O)cc1 [MLS000627094] | 11.2 µM | 12.6 µM | 2% | 15.8 µM | > 57 µM | > 57 µM | 
COc1ccc2c(c1)c(=O)oc1cc(OCC(=O)NC3CCCCC3)ccc12 [MLS000594161] | 11.2 µM | 5.6 µM | 38% | > 57 µM | > 57 µM | > 57 µM | 
O=C(O)c1cccc(-c2ccc(/C=c3/sc4nc5ccccc5n4c3=O)o2)c1 [MLS000777053] | 10 µM | 5 µM | 23% | 7.9 µM | 6.3 µM | > 57 µM | 
Cc1ccc(NC(=O)CN2C(=O)S/C(=C/c3ccc(-c4cc(C(=O)O)ccc4C)o3)C2=O)cc1C [MLS000530771] | 19.9 µM | 7.1 µM | 21% | 10 µM | > 57 µM | > 57 µM | 
O=c1oc2c(O)c(O)cc3c(=O)oc4c(O)c(O)cc1c4c23 [NCGC00094975] | 0.01 µM | 0.01 µM | 2.4% | 31.6 µM | 0.1 µM | > 57 µM | 
CC(=O)Oc1cc2cccc(OC(C)=O)c(=O)c2c(OC(C)=O)c1OC(C)=O [MLS001049122] | 0.4 µM | 6.3 µM | 37% | > 57 µM | > 57 µM | > 57 µM | 
Cc1c(O)cc2c(c1O)C(=O)CC(c1ccc(O)cc1)O2 (stereo not drawn) [MLS000876957] | 1.6 µM | 4.5 µM | 44% | > 57 µM | > 57 µM | > 57 µM | 
